Reference: paper PMC10943645 (Current Research in Toxicology, 2024)

Columns and labels:
[1] = system: DNA; assay: Identification of B; format: in vivo, PIRC rats; conditions: colon and liver tissues
[2] = Tissue disposition of B; format: in vivo, PIRC rats; conditions: for proportion of reactive metabolite among B(a)P metabolite concentrations: colon sample, 50 µg B(a)P/kg bw (Fig. 5D)
[3] = system: GST; assay: Western blot of GST protein in colon; format: in vivo, PIRC rats; conditions: 25 µg B(a)P/kg bw + RD, among all the groups
[4] = system: SULT1A1; assay: Western blot of SULT1A1 protein in liver; format: in vivo, PIRC rats
[5] = system: malondialdehyde (MDA); assay: Lipid peroxidation; format: in vivo, PIRC rats; conditions: among the treatment groups, except in the case of 100 µg/kg
[6] = system: malondialdehyde (MDA); assay: Lipid peroxidation; format: in vivo, PIRC rats; conditions: B(a)P + WD
[7] = system: SULT1A1; assay: Western blot of SULT1A1 protein in colon; format: in vivo, PIRC rats
[8] = system: GST; assay: Western blot of GST protein in liver; format: in vivo, PIRC rats
[9] = system: Caco-2 cells; conditions: Western diet; ref Faria et al. (2020); cited from earlier work

For `O=c1c2ccc3cccc4c(=O)cc(c5ccccc15)-c2c34` [B(a)P-6,12-dione], the “contribution of B(a)P metabolite to DNA adduct formation” value (from here on “contribution of B(a)P metabolite”) [1] was “not found to contribute to adduct formation” and the “proportion of reactive metabolite among B(a)P metabolite concentrations” value [2] was “high”.
In the case of `Oc1ccc2ccc3c4ccccc4cc4ccc1c2c43` [3-OH-B(a)P], the “contribution of B(a)P metabolite” value [1] is reported as “not found to contribute to adduct formation”.
In the case of `O[C@@H]1[C@@H]2O[C@@H]2c2c(cc3ccc4cccc5ccc2c3c45)[C@H]1O` [BPDE, 7β,8α-dihydroxy-9α,10α-epoxy-7,8,9,10-tetrahydrobenzo[a]pyrene], the “contribution of B(a)P metabolite” value [1] is reported as “major adducts”.
In the case of `c1ccc2c(c1)cc1ccc3cccc4ccc2c1c34` [B(a)P, Benzo(a)pyrene], the “GST protein expression in colon” value [3] is reported as “largest increase”, the “SULT1A1 protein expression in liver, WD compared to RD” value ([4]; 25 µg B(a)P/kg bw + WD vs RD) is reported as “increased expression” and the “SULT1A1 protein expression in liver, RD or WD” value ([4]; 50 and 100 µg B(a)P/kg bw + RD or WD) is reported as “no difference”. The “oxidative stress (MDA) in serum” value [5] was “no difference”, the “MDA production in colon” value [6] was “increased” and the “B(a)P metabolite concentrations versus dose” value ([2]; plasma, liver, colon, 25, 50, 100 µg B(a)P/kg bw) was “dose-dependent”. The “SULT1A1 protein expression in colon” value ([7]; 25 µg B(a)P/kg bw + RD and WD) was “negligible”, the “SULT1A1 protein expression in colon” value ([7]; 50 µg B(a)P/kg bw, both diets) was “increased” and the “SULT1A1 protein expression in colon, WD compared to RD” value ([7]; 100 µg B(a)P/kg bw + WD vs RD counterpart) was “significantly increased”. For the same compound, the “GST protein expression in liver, RD or WD” value ([8]; 100 µg B(a)P/kg bw, RD or WD) was “Very little difference”, the “GST protein expression in liver, WD compared to counterparts” value ([8]; 25 and 50 µg B(a)P/kg bw + WD) was “significant increase” and the “bioaccessibility of B(a)P with WD” value [9] was “higher bioaccessibility”.
In the case of `Oc1ccc2cc3ccc4cccc5ccc(c2c1)c3c45` [9-OH–B(a)P], the “contribution of B(a)P metabolite” value [1] is reported as “not found to contribute to adduct formation”.
In the case of `O=C1C=Cc2ccc3c4c(ccc1c24)C(=O)c1ccccc1-3` [B(a)P-3,6-dione], the “contribution of B(a)P metabolite” value [1] is reported as “not found to contribute to adduct formation” and the “proportion of reactive metabolite among B(a)P metabolite concentrations” value [2] is reported as “high”.
